Literature values in PubChem BioAssay AID1259409 (Chemical Carcinogenesis Research Information System (CCRIS), 2018).

Tested on: rodent chemically induced tumor inhibition, incidence and multiplicity
Assay: CCRIS tumor inhibitor studies
Conditions: Carcinogen: AZOXYMETHANE, 25843-45-2, Dose [Inhibitor]: 0, Route [Inhibitor]: ORAL, Species: RAT, Strain/Sex: F344/MALE, Promoter: NONE USED

Structure (SMILES): O=C1C=C(/C=C/c2ccccc2)C(O)O1 (centres undefined)
- tumour outcome (control, treated, inhibition, significance) (0.02% IN DIET FOR FIRST 3 WK OF STUDY (STUDY DURATION: 1 YR), Target Tissue: Type of Lesion: INTESTINE: ADENOMA OR ADENOCARCINOMA, Dose [Carcinogen]: 15 MG/KG BW ONCE IN WK 1 AND ONCE IN WK 3 OF STUDY): 20/27 (74%), 7/18 (39%), 47%, p<0.02
- tumour outcome (control, treated, inhibition, significance) (100 PPM IN DIET FOR DURATION OF STUDY BEGINNING 1 WK POST CARCINOGEN TREATMENT (STUDY DURATION: 32 WK), Target Tissue: Type of Lesion: LARGE INTESTINE: ADENOCARCINOMA, Dose [Carcinogen]: 15 MG/KG BW 1/WK FOR 3 WK): 10/30 (33%), 5/28 (18%), 45%, not significant
- tumour outcome (control, treated, inhibition, significance) (100 PPM IN DIET FOR DURATION OF STUDY BEGINNING 1 WK POST CARCINOGEN TREATMENT (STUDY DURATION: 32 WK), Target Tissue: Type of Lesion: LARGE INTESTINE: ADENOMA, Dose [Carcinogen]: 15 MG/KG BW 1/WK FOR 3 WK): 1/30 (3%), 2/28 (7%), -133%, not significant
- tumour outcome (control, treated, inhibition, significance) (100 PPM IN DIET FOR DURATION OF STUDY BEGINNING 1 WK POST CARCINOGEN TREATMENT (STUDY DURATION: 32 WK), Target Tissue: Type of Lesion: SMALL INTESTINE: ADENOCARCINOMA, Dose [Carcinogen]: 15 MG/KG BW 1/WK FOR 3 WK): 12/30 (40%), 7/28 (25%), 38%, not significant
- tumour outcome (control, treated, inhibition, significance) (100 PPM IN DIET FOR DURATION OF STUDY BEGINNING 1 WK POST CARCINOGEN TREATMENT (STUDY DURATION: 32 WK), Target Tissue: Type of Lesion: SMALL INTESTINE: ADENOMA, Dose [Carcinogen]: 15 MG/KG BW 1/WK FOR 3 WK): 1/30 (3%), 1/28 (4%), -33%, not significant
- tumour outcome (control, treated, inhibition, significance) (200 PPM IN DIET FOR DURATION OF STUDY BEGINNING 1 WK POST CARCINOGEN TREATMENT (STUDY DURATION: 32 WK), Target Tissue: Type of Lesion: LARGE INTESTINE: ADENOCARCINOMA, Dose [Carcinogen]: 15 MG/KG BW 1/WK FOR 3 WK): 10/30 (33%), 3/28 (11%), 67%, p<0.05
- tumour outcome (control, treated, inhibition, significance) (200 PPM IN DIET FOR DURATION OF STUDY BEGINNING 1 WK POST CARCINOGEN TREATMENT (STUDY DURATION: 32 WK), Target Tissue: Type of Lesion: LARGE INTESTINE: ADENOMA, Dose [Carcinogen]: 15 MG/KG BW 1/WK FOR 3 WK): 1/30 (3%), 2/28 (7%), -133%, not significant
- tumour outcome (control, treated, inhibition, significance) (200 PPM IN DIET FOR DURATION OF STUDY BEGINNING 1 WK POST CARCINOGEN TREATMENT (STUDY DURATION: 32 WK), Target Tissue: Type of Lesion: SMALL INTESTINE: ADENOCARCINOMA, Dose [Carcinogen]: 15 MG/KG BW 1/WK FOR 3 WK): 12/30 (40%), 2/28 (7%), 83%, p<0.005
- tumour outcome (control, treated, inhibition, significance) (200 PPM IN DIET FOR DURATION OF STUDY BEGINNING 1 WK POST CARCINOGEN TREATMENT (STUDY DURATION: 32 WK), Target Tissue: Type of Lesion: SMALL INTESTINE: ADENOMA, Dose [Carcinogen]: 15 MG/KG BW 1/WK FOR 3 WK): 1/30 (3%), 0/28 (0%), 100%, not significant
